From patent US20140193827A1 (TEVA PHARMACEUTICAL INDUSTRIES, LTD., priority 2013, published 2014)

System: GA-primed murine splenocytes
Test: Tolerance method for assessing process variability

glatiramer acetate [GA]
AVG expression CYHR1 (probe ILMN_1228937): 8.14 | AVG expression MSN (probe ILMN_1229193): 9.736 | AVG expression OTTMUSG00000016644 (probe ILMN_1229197): 7.618 | AVG expression ECM1 (probe ILMN_1229746): 6.806 | AVG expression LTA (probe ILMN_1229804): 8.009 | AVG expression ST7 (probe ILMN_1229827): 7.737 | AVG expression FCRLA (probe ILMN_1229840): 9.907 | AVG expression 4933437K13RIK (probe ILMN_1230045): 9.824 | AVG expression TPI1 (probe ILMN_1230137): 12.52 | AVG expression BATF2 (probe ILMN_1230143): 6.446 | AVG expression CLIC4 (probe ILMN_1230546): 11.15 | AVG expression GM336 (probe ILMN_1230605): 7.6587 | AVG expression LOC270152 (probe ILMN_1231204): 8.329 | AVG expression TPI1 (probe ILMN_1231447): 7.938 | AVG expression CCL5 (probe ILMN_1231814): 8.662 | AVG expression THADA (probe ILMN_1232235): 8.652 | AVG expression ANK (probe ILMN_1232621): 7.123 | AVG expression MAD (probe ILMN_1232668): 7.987 | AVG expression GBP1 (probe ILMN_1233293): 11.66 | AVG expression LOC100045981 (probe ILMN_1233402): 9.335 | AVG expression IL2RA (probe ILMN_1233474): 8.134 | AVG expression C530027B15R1K (probe ILMN_1233501): 8.684 | AVG expression CD27 (probe ILMN_1233589): 8.296 | AVG expression 1110014O20RIK (probe ILMN_1233987): 9.906 | AVG expression PPP3CC (probe ILMN_1233999): 8.724 | AVG expression SCL0002007.1_97 (probe ILMN_1234020): 8.904 | AVG expression TMED8 (probe ILMN_1234054): 8.518 | AVG expression IRGM1 (probe ILMN_1234539): 11.44 | AVG expression TSPAN2 (probe ILMN_1234698): 7.426 | AVG expression IGHA_J00475$V00785_IG_HEAVY—CONSTANT_ALPHA_135 (probe ILMN_1234706): 7.221 | AVG expression AI790298 (probe ILMN_1234746): 6.873 | AVG expression 4630004K05RIK (probe ILMN_1234973): 6.972 | AVG expression PROS1 (probe ILMN_1235499): 8.935 | AVG expression A630072M18RIK (probe ILMN_1235926): 8.781 | AVG expression FCRLA (probe ILMN_1236111): 11.88 | AVG expression RAB11FIP4 (probe ILMN_1236245): 6.42 | AVG expression E130302P19RIK (probe ILMN_1236354): 7.244 | AVG expression 5830496L11RIK (probe ILMN_1236507): 9.309 | AVG expression CAR1 (probe ILMN_1236588): 9.793 | AVG expression SLC25A19 (probe ILMN_1237074): 11.68 | AVG expression DDX25 (probe ILMN_1237338): 6.532 | AVG expression IL7R (probe ILMN_1237567): 6.244 | AVG expression PFKP (probe ILMN_1237695): 10.66 | AVG expression AMPD1 (probe ILMN_1237871): 6.446 | AVG expression AREG (probe ILMN_1238547): 6.514 | AVG expression C130086J11RIK (probe ILMN_1238725): 7.188 | AVG expression KDH (probe ILMN_1239055): 7.064 | AVG expression KLRE1 (probe ILMN_1239346): 6.805 | AVG expression LOC100047934 (probe ILMN_1239397): 10.17 | AVG expression 6430510M02RIK (probe ILMN_1239411): 8.536 | AVG expression CEACAM2 (probe ILMN_1239472): 6.786 | AVG expression NG23 (probe ILMN_1239632): 8.463 | AVG expression KIF1B (probe ILMN_1239729): 7.517 | AVG expression 6030400N17RIK (probe ILMN_1239797): 6.341 | AVG expression PRSS34 (probe ILMN_1239878): 6.278 | AVG expression ANXA3 (probe ILMN_1241171): 8.239 | AVG expression ADRB2 (probe ILMN_1241610): 8.974 | AVG expression TCF7 (probe ILMN_1242308): 8.261 | AVG expression CREM (probe ILMN_1242622): 8.248 | AVG expression AKAP8L (probe ILMN_1242769): 9.971 | AVG expression D630014A15RIK (probe ILMN_1242794): 8.379 | AVG expression A130010J15RIK (probe ILMN_1243150): 8.875 | AVG expression 2810410A03RIK (probe ILMN_1243249): 10.13 | AVG expression A130026C10RIK (probe ILMN_1243621): 9.03 | AVG expression B230369L08RIK (probe ILMN_1244343): 9.9 | AVG expression RASGRP2 (probe ILMN_1244516): 6.8 | AVG expression LOC100044948 (probe ILMN_1244853): 11.36 | AVG expression GBP5 (probe ILMN_1244866): 9.012 | AVG expression SYNGR2 (probe ILMN_1244874): 10.87 | AVG expression CST7 (probe ILMN_1244891): 7.709 | AVG expression F730045P10RIK (probe ILMN_1245300): 7.742 | AVG expression HHEX (probe ILMN_1245731): 9.543 | AVG expression CD84 (probe ILMN_1245754): 6.93 | AVG expression SIAT7C (probe ILMN_1246543): 8.379 | AVG expression C78339 (probe ILMN_1246895): 9.914 | AVG expression BC004728 (probe ILMN_1247198): 10.36 | AVG expression LOC100046770 (probe ILMN_1247199): 8.329 | AVG expression IL3 (probe ILMN_1247309): 9.384 | AVG expression CGEF2-PENDING (probe ILMN_1247893): 8.11 | AVG expression EMP3 (probe ILMN_1248028): 10.05 | AVG expression FASL (probe ILMN_1248413): 6.78 | AVG expression C330023M02RIK (probe ILMN_1248651): 8.865 | AVG expression CD55 (probe ILMN_1248714): 8.2139 | AVG expression GATA3 (probe ILMN_1248843): 8.224 | AVG expression TBX6 (probe ILMN_1249014): 6.934 | AVG expression BCL2 (probe ILMN_1249021): 8.748 | AVG expression MPO (probe ILMN_1249030): 8.41 | AVG expression LOC100046608 (probe ILMN_1249366): 9.365 | AVG expression TSSC6 (probe ILMN_1249740): 6.912 | AVG expression IGF1R (probe ILMN_1249824): 6.78 | AVG expression IGHG (probe ILMN_1249975): 8.895 | AVG expression EIF2AK2 (probe ILMN_1250410): 10.06 | AVG expression C730026J16 (probe ILMN_1251984): 9.459 | AVG expression LYZ2 (probe ILMN_1252076): 8.645 | AVG expression LOC100038894 (probe ILMN_1252295): 6.989 | AVG expression WDR9 (probe ILMN_1252496): 7.625 | AVG expression ACAT2 (probe ILMN_1253008): 9.341 | AVG expression HS3ST1 (probe ILMN_1253182): 8.805 | AVG expression DAPP1 (probe ILMN_1253354): 8.474 | AVG expression WARS (probe ILMN_1254157): 10.36 | AVG expression NISCH (probe ILMN_1254218): 10.29 | AVG expression 4931429I11RIK (probe ILMN_1254314): 6.757 | AVG expression LMNA (probe ILMN_1254405): 8.835 | AVG expression AI607873 (probe ILMN_1254577): 7.533 | AVG expression ACPL2 (probe ILMN_1254634): 7.573 | AVG expression SYPL (probe ILMN_1254669): 10.85 | AVG expression EG240327 (probe ILMN_1254685): 7.154 | AVG expression LMNA (probe ILMN_1255510): 9.57 | AVG expression IL6RA (probe ILMN_1255743): 7.478 | AVG expression KLRD1 (probe ILMN_1255860): 8.506 | AVG expression LOC100047261 (probe ILMN_1256219): 11.14 | AVG expression PML (probe ILMN_1256356): 10.68 | AVG expression MCOLN3 (probe ILMN_1256430): 6.748 | AVG expression SLC6A12 (probe ILMN_1256644): 6.942 | AVG expression LOC100043821 (probe ILMN_1257107): 10.78 | AVG expression SLC37A1 (probe ILMN_1257444): 7.908 | AVG expression LOC638301 (probe ILMN_1257771): 9.6 | AVG expression A130095K04RIK (probe ILMN_1257803): 6.146 | AVG expression D230004N01RIK (probe ILMN_1258197): 8.362 | AVG expression DOK3 (probe ILMN_1258357): 11.45 | AVG expression 5430434G16RIK (probe ILMN_1258364): 8.61 | AVG expression LOC100044376 (probe ILMN_1258587): 9.335 | AVG expression BC106179 (probe ILMN_1258864): 7.749 | AVG expression TMEM66 (probe ILMN_1258965): 10.41 | AVG expression NME7 (probe ILMN_1259075): 8.301 | AVG expression SCIN (probe ILMN_1259174): 9.64 | AVG expression SFT2D2 (probe ILMN_1260046): 10.2783 | AVG expression USP18 (probe ILMN_2054914): 8.225 | AVG expression ADCY7 (probe ILMN_2163572): 8.002 | AVG expression TNFRSF18 (probe ILMN_2419490): 11.07 | AVG expression TNFR5F18 (probe ILMN_2419494): 10.8 | AVG expression BRWD1 (probe ILMN_2421220): 7.59 | AVG expression UBD (probe ILMN_2426853): 8.138 | AVG expression XBP1 (probe ILMN_2431237): 12.27 | AVG expression LOC100048346 (probe ILMN_2433990): 9.203 | AVG expression SCL0002069.1_48 (probe ILMN_2443164): 8.113 | AVG expression MACF1 (probe ILMN_2444984): 7.707 | AVG expression TNFRSF9 (probe ILMN_2445789): 8.963 | AVG expression TNFRSF4 (probe ILMN_2446559): 10.65 | AVG expression IBRDC3 (probe ILMN_2447712): 7.79 | AVG expression MAP4K2 (probe ILMN_2449150): 9.206 | AVG expression DUSP4 (probe ILMN_2450767): 8.696 | AVG expression 6720418B01RIK (probe ILMN_2454823): 7.844 | AVG expression A830080H07RIK (probe ILMN_2457437): 9.842 | AVG expression MAML2 (probe ILMN_2457571): 8.504 | AVG expression AHNAK (probe ILMN_2458765): 8.464 | AVG expression ADAMTSL4 (probe ILMN_2459899): 8.039 | AVG expression WNT10A (probe ILMN_2460094): 7.099 | AVG expression BAMBI-PS1 (probe ILMN_2467190): 7.445 | AVG expression 1110059G02RIK (probe ILMN_2473692): 6.85 | AVG expression 5830411I20 (probe ILMN_2474052): 10.05 | AVG expression CPM (probe ILMN_2476452): 6.679 | AVG expression 1700052O22R1K (probe ILMN_2481117): 9.816 | AVG expression 2210408F11RIK (probe ILMN_2483811): 10.42 | AVG expression 2010005O13RIK (probe ILMN_2488997): 9.797 | AVG expression PKIB (probe ILMN_2490076): 7.096 | AVG expression TRIO (probe ILMN_2491741): 6.611 | AVG expression WISP1 (probe ILMN_2492264): 6.711 | AVG expression AA536717 (probe ILMN_2492284): 6.484 | AVG expression 2310043N10RIK (probe ILMN_2493030): 9.383 | AVG expression UGT1A10 (probe ILMN_2493826): 6.49 | AVG expression 9430080K19RIK (probe ILMN_2500370): 10.17 | AVG expression EG330070 (probe ILMN_2504447): 6.499 | AVG expression A130090K04RIK (probe ILMN_2506039): 8.137 | AVG expression 7530404M11RIK (probe ILMN_2507761): 7.426 | AVG expression NME7 (probe ILMN_2510694): 7.434 | AVG expression 1110046J11RIK (probe ILMN_2513451): 10.16 | AVG expression 7530408C15RIK (probe ILMN_2517611): 7.035 | AVG expression PLA2G12A (probe ILMN_2518483): 6.955 | AVG expression 2010016118RIK (probe ILMN_2520264): 7.54 | AVG expression 3010031K01RIK (probe ILMN_2522460): 9.234 | AVG expression TRIO (probe ILMN_2522750): 8.588 | AVG expression 4930597A21RIK (probe ILMN_2524763): 7.674 | AVG expression CHI3L4 (probe ILMN_2524865): 7.454 | AVG expression LOC240672 (probe ILMN_2531737): 8.095
